Measured values reported in patent publication US20230192661A1, “1, 4, 5, 6-TETRAHYDROPYRIMIDINE-2-AMINE DERIVATIVE” (UBE Corporation, priority 2020, published 2023).

Columns and labels:
[1] = tested on: Human hepatic stellate cells; test: Active human hepatic stellate cell dedifferentiation test (decrease in ACTA2 mRNA expression); format: cell-based; details: 3 days differentiation then 2 days with compound, read-out: IC50 (rate of decrease in ACTA2 mRNA expression)
How it was run: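 Human hepatic stellate cells differentiated 3 days in DMEM/10% FBS, then exposed to compound for 2 days (0.1% DMSO final) at 37° C. ACTA2 mRNA measured by RT-qPCR, normalized to GAPDH (comparative Ct). Decrease scaled between DMSO (100%) and start-of-differentiation cells (0%); IC50 derived from it.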

[2] = tested on: TGF-β activation (phosphorylated SMAD3); test: TGF-β activation inhibition test (inhibition of SMAD3 phosphorylation in TFK-1 cells); format: cell-based; details: 48 h, fibronectin-coated plate, cultured 2 days, read-out: IC50 (rate of inhibition of phosphorylated SMAD3)
How it was run: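 TFK-1 cells on fibronectin-coated wells cultured 2 days at 37° C. with compound in RPMI 1640 with 1% FBS. Phospho-SMAD3 (Ser423/425) measured by cellular kit as DeltaF; inhibition scaled between DMSO (0%) and 10 μM LY364947 (100%), and IC50 calculated.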

## O=C(O)C[C@H](NC(=O)CNC(=O)c1cc(NC2=NCC(F)CN2)c2cn[nH]c2c1)c1cccc(C(F)(F)F)c1 (stereo partly drawn) [Example 35-(b), (3S)-3-(2-(4-((5-fluoro-1,4,5,6-tetrahydropyrimidin-2-yl)amino)-1H-indazole-6-carboxamido)acetamido)-3-(3-(trifluoromethyl)phenyl)propanoic acid]
[1]
  IC50: < 10 nM
[2]
  IC50: 10 to 50 nM

## O=C(O)C[C@H](NC(=O)CNC(=O)c1cc(NC2=NCC(F)CN2)c2cn[nH]c2c1)c1cccc(OC(F)(F)F)c1 (stereo partly drawn) [Example 36-(b), (3S)-3-(2-(4-((5-fluoro-1,4,5,6-tetrahydropyrimidin-2-yl)amino)-1H-indazole-6-carboxamido)acetamido)-3-(3-(trifluoromethoxy)phenyl)propanoic acid]
[1]
  IC50: 10 to 50 nM
[2]
  IC50: 10 to 50 nM

## O=C(O)C[C@H](NC(=O)CNC(=O)c1cc(NC2=NCC(F)CN2)c2cn[nH]c2c1)c1cccc(OC(F)F)c1 (stereo partly drawn) [Example 37-(b), (3S)-3-(3-(difluoromethoxy)phenyl)-3-(2-(4-((5-fluoro-1,4,5,6-tetrahydropyrimidin-2-yl)amino)-1H-indazole-6-carboxamido)acetamido)propanoic acid]
[1]
  IC50: 10 to 50 nM
[2]
  IC50: < 10 nM

## O=C(O)C[C@H](NC(=O)CNC(=O)c1cc(NC2=NCC(F)CN2)c2cn[nH]c2c1)c1cccc(C(F)F)c1 (stereo partly drawn) [Example 38-(b), (3S)-3-(3-(difluoromethyl)phenyl)-3-(2-(4-((5-fluoro-1,4,5,6-tetrahydropyrimidin-2-yl)amino)-1H-indazole-6-carboxamido)acetamido)propanoic acid]
[1]
  IC50: < 10 nM
[2]
  IC50: 50 to 100 nM

## O=C(O)C[C@H](NC(=O)CNC(=O)c1cc(NC2=NCC(F)CN2)c2cn[nH]c2c1)c1cccc(C2CC2)c1 (stereo partly drawn) [Example 39-(b), (3S)-3-(3-cyclopropylphenyl)-3-(2-(4-((5-fluoro-1,4,5,6-tetrahydropyrimidin-2-yl)amino)-1H-indazole-6-carboxamido)acetamido)propanoic acid]
[1]
  IC50: < 10 nM
[2]
  IC50: < 10 nM

## O=C(O)C[C@H](NC(=O)CNC(=O)c1cc(NC2=NCC(F)CN2)c2cn[nH]c2c1)c1cccc(OC2CC2)c1 (stereo partly drawn) [Example 40-(b), (3S)-3-(3-cyclopropoxyphenyl)-3-(2-(4-((5-fluoro-1,4,5,6-tetrahydropyrimidin-2-yl)amino)-1H-indazole-6-carboxamido)acetamido)propanoic acid]
[1]
  IC50: 10 to 50 nM
[2]
  IC50: 10 to 50 nM

## O=C(O)C[C@H](NC(=O)CNC(=O)c1cc(NC2=NCC(F)CN2)c2cn[nH]c2c1)c1cccc(Cl)c1 (stereo partly drawn) [Example 41-(b), (3S)-3-(3-chlorophenyl)-3-(2-(4-((5-fluoro-1,4,5,6-tetrahydropyrimidin-2-yl)amino)-1H-indazole-6-carboxamido)acetamido)propanoic acid]
[1]
  IC50: 10 to 50 nM
[2]
  IC50: < 10 nM

## O=C(O)C[C@H](NC(=O)CNC(=O)c1cc(NC2=NCC(F)CN2)c2cn[nH]c2c1)c1cccc(Br)c1 (stereo partly drawn) [Example 42-(b), (3S)-3-(3-bromophenyl)-3-(2-(4-((5-fluoro-1,4,5,6-tetrahydropyrimidin-2-yl)amino)-1H-indazole-6-carboxamido)acetamido)propanoic acid]
[1]
  IC50: 10 to 50 nM
[2]
  IC50: 10 to 50 nM

## O=C(O)C[C@H](NC(=O)CNC(=O)c1cc(NC2=NCC(F)CN2)c2cn[nH]c2c1)c1cccc(-n2cccn2)c1 (stereo partly drawn) [Example 43-(b), (3S)-3-(3-(1H-pyrazol-1-yl)phenyl)-3-(2-(4-((5-fluoro-1,4,5,6-tetrahydropyrimidin-2-yl)amino)-1H-indazole-6-carboxamido)acetamido)propanoic acid]
[1]
  IC50: 10 to 50 nM
[2]
  IC50: < 10 nM

## O=C(O)C[C@H](NC(=O)CNC(=O)c1cc(NC2=NCC(F)CN2)c2c(F)n[nH]c2c1)c1cc(Cl)cc(C(F)(F)F)c1 (stereo partly drawn) [Example 48-(b), (3S)-3-(3-chloro-5-(trifluoromethyl)phenyl)-3-(2-(3-fluoro-4-((5-fluoro-1,4,5,6-tetrahydropyrimidin-2-yl)amino)-1H-indazole-6-carboxamido)acetamido) propanoic acid]
[1]
  IC50: < 10 nM
[2]
  IC50: < 10 nM

## O=C(O)C[C@H](NC(=O)CNC(=O)c1cc(NC2=NCC(F)CN2)c2c(Cl)n[nH]c2c1)c1cc(Cl)cc(C(F)(F)F)c1 (stereo partly drawn) [Example 49-(b), (3S)-3-(2-(3-chloro-4-((5-fluoro-1,4,5,6-tetrahydropyrimidin-2-yl)amino)-1H-indazole-6-carboxamido)acetamido)-3-(3-chloro-5-(trifluoromethyl)phenyl)propanoic acid]
[1]
  IC50: < 10 nM
[2]
  IC50: < 10 nM

## O=C(O)C[C@H](NC(=O)CNC(=O)c1cc(NC2=NCC(F)CN2)cc2[nH]ncc12)c1cc(Cl)cc(C(F)(F)F)c1 (stereo partly drawn) [Example 52-(b), (3S)-3-(3-chloro-5-(trifluoromethyl)phenyl)-3-(2-(6-((5-fluoro-1,4,5,6-tetrahydropyrimidin-2-yl)amino)-1H-indazole-4-carboxamido)acetamido)propanoic acid]
[1]
  IC50: 10 to 50 nM
[2]
  IC50: < 10 nM

## O=C(O)C[C@H](NC(=O)CNC(=O)c1cc(NC2=NCC(F)CN2)cc2[nH]ncc12)c1cc(Br)cc(C(F)(F)F)c1 (stereo partly drawn) [Example 53-(b), (3S)-3-(3-bromo-5-(trifluoromethyl)phenyl)-3-(2-(6-((5-fluoro-1,4,5,6-tetrahydropyrimidin-2-yl)amino)-1H-indazole-4-carboxamido)acetamido)propanoic acid]
[1]
  IC50: 10 to 50 nM
[2]
  IC50: < 10 nM

## O=C(O)C[C@H](NC(=O)CNC(=O)c1cc(NC2=NCC(F)CN2)cc2[nH]ncc12)c1cc(I)cc(C(F)(F)F)c1 (stereo partly drawn) [Example 54-(b), (3S)-3-(2-(6-((5-fluoro-1,4,5,6-tetrahydropyrimidin-2-yl)amino)-1H-indazole-4-carboxamido)acetamido)-3-(3-iodo-5-(trifluoromethyl)phenyl)propanoic acid]
[1]
  IC50: 10 to 50 nM
[2]
  IC50: < 10 nM

## O=C(O)C[C@H](NC(=O)CNC(=O)c1cc(NC2=NCC(F)CN2)cc2[nH]ncc12)c1ccc(F)c(C(F)(F)F)c1 (stereo partly drawn) [Example 55-(b), (3S)-3-(2-(6-((5-fluoro-1,4,5,6-tetrahydropyrimidin-2-yl)amino)-1H-indazole-4-carboxamido)acetamido)-3-(4-fluoro-3-(trifluoromethyl)phenyl)propanoic acid]
[1]
  IC50: < 10 nM
[2]
  IC50: < 10 nM

## O=C(O)C[C@H](NC(=O)CNC(=O)c1cc(NC2=NCC(F)CN2)cc2[nH]ncc12)c1cccc(C(F)(F)F)c1 (stereo partly drawn) [Example 56-(b), (3S)-3-(2-(6-((5-fluoro-1,4,5,6-tetrahydropyrimidin-2-yl)amino)-1H-indazole-4-carboxamido)acetamido)-3-(3-(trifluoromethyl)phenyl)propanoic acid]
[1]
  IC50: < 10 nM
[2]
  IC50: < 10 nM
